Reference: patent US20240044922A1, “DEVICE AND METHODS FOR MEASURING PLATELET-FIBRIN CLOT CONTRACTION KINETICS” (University of Kentucky Research Foundation, priority 2022, published 2024)
Several values for one entry are separate records, joined by “and”; a condition that tells them apart may be missing. Identical values can stand only once. Like-named read-outs stand apart in the source and are kept apart here. Bridge positions count the residues as written; N and C are the ends. Square brackets hold non-standard residues; d marks the D form. Peptide text beside a SMILES is read from it. hArg = N=C(N)NCCCC[C@H](N)C(=O)O; Mpa = O=C(O)CCS

Test system: washed mouse platelets
Assay: Clot contraction assay, time-lapse imaging of washed mouse platelets with thrombin, fibrinogen and CaCl2
Type: cell-based
[1] = blebbistatin 50 μM, standard conditions
[2] = blebbistatin 100 μM, standard conditions
[3] = blebbistatin 200 μM, standard conditions
[4] = eptifibatide 50 μM, standard conditions
[5] = eptifibatide 100 μM, standard conditions
[6] = eptifibatide 150 μM, standard conditions

Structure (SMILES): Cc1ccc2c(c1)C(=O)C1(O)CCN(c3ccccc3)C1=N2 (stereo not shown) [Blebbistatin, blebbistatin, reference compound]
- AUC [1]: 4.18 AU
- Average Velocity [1]: 1.00 %/min
- Clot Contraction Extent [1]: 96.93%
- Lag time [1]: 23.33 min
- PHASE 1 % Contraction [1]: 4.23%
- PHASE 1 Rate 1 [1]: 3.67 ×10^−3 %/min
- PHASE 1 t1 [1]: 14.33 min
- PHASE 2 % Contraction [1]: 26.51%
- PHASE 2 Rate 2 [1]: 1.40 %/min
- PHASE 2 t2 [1]: 32.00 min
- PHASE 3 % Contraction [1]: 66.19%
- PHASE 3 Rate 3 [1]: 5.00 ×10^−2 %/min
- AUC [2]: 6.08 AU
- Average Velocity [2]: 0.88 %/min
- Clot Contraction Extent [2]: 85.15%
- Lag time [2]: 40.00 min
- PHASE 1 % Contraction [2]: 7.21%
- PHASE 1 Rate 1 [2]: 4.00 ×10^−3 %/min
- PHASE 1 t1 [2]: 24.67 min
- PHASE 2 % Contraction [2]: 28.71%
- PHASE 2 Rate 2 [2]: 1.00 %/min
- PHASE 2 t2 [2]: 51.00 min
- PHASE 3 % Contraction [2]: 49.27%
- PHASE 3 Rate 3 [2]: 3.47 ×10^−2 %/min
- AUC [3]: 6.79 AU
- Average Velocity [3]: 0.69 %/min
- Clot Contraction Extent [3]: 66.52%
- Lag time [3]: 43.67 min
- PHASE 1 % Contraction [3]: 12.21%
- PHASE 1 Rate 1 [3]: 5.00 ×10^−3 %/min
- PHASE 1 t1 [3]: 31.00 min
- PHASE 2 % Contraction [3]: 14.17%
- PHASE 2 Rate 2 [3]: 0.69 %/min
- PHASE 2 t2 [3]: 49.33 min
- PHASE 3 % Contraction [3]: 40.15%
- PHASE 3 Rate 3 [3]: 1.70 ×10^−2 %/min
- Effect on Phase 2 contraction rate (blebbistatin 50 to 200 μM): drastic decrease
- Effect on average velocity (blebbistatin 50 to 200 μM): decrease
- Effect on extent of clot contraction (blebbistatin 50 to 200 μM): decrease
- Effect on lag time (blebbistatin 50 to 200 μM): dose-dependent increase

Structure (SMILES): N=C(N)NCCCC[C@@H]1NC(=O)CCSSC[C@@H](C(N)=O)NC(=O)[C@@H]2CCCN2C(=O)[C@H](Cc2c[nH]c3ccccc23)NC(=O)[C@H](CC(=O)O)NC(=O)CNC1=O [Eptifibatide, eptifibatide, reference compound] ([Mpa][hArg]GDWPC-NH2; disulfide 1-7)
- AUC: 5.51 AU and 6.76 AU and 6.84 AU
- Average Velocity [4]: 0.91 %/min
- Clot Contraction Extent [4]: 89.56%
- Lag time [4]: 29.33 min
- PHASE 1 % Contraction [4]: 5.36%
- PHASE 1 Rate 1 [4]: 3.93 ×10^−3 %/min
- PHASE 1 t1 [4]: 14.33 min
- PHASE 2 % Contraction [4]: 32.14%
- PHASE 2 Rate 2 [4]: 1.96 %/min
- PHASE 2 t2 [4]: 43.00 min
- PHASE 3 % Contraction [4]: 52.91%
- PHASE 3 Rate 3 [4]: 3.83 ×10^−2 %/min
- Average Velocity [5]: 0.74 %/min
- Clot Contraction Extent [5]: 73.02%
- Lag time [5]: 46.67 min
- PHASE 1 % Contraction [5]: 9.24%
- PHASE 1 Rate 1 [5]: 4.00 ×10^−3 %/min
- PHASE 1 t1 [5]: 26.00 min
- PHASE 2 % Contraction [5]: 20.75%
- PHASE 2 Rate 2 [5]: 1.08 %/min
- PHASE 2 t2 [5]: 52.00 min
- PHASE 3 % Contraction [5]: 43.03%
- PHASE 3 Rate 3 [5]: 2.20 ×10^−2 %/min
- Detection of the three phases of contraction (eptifibatide 150 μM): none of the three phases were detectible
- Average Velocity [6]: 0.67 %/min
- Clot Contraction Extent [6]: 66.08%
- Lag time [6]: 50 min
- Effect on average velocity of contraction (eptifibatide 50 to 150 μM): dose-dependent decrease
- Effect on extent of contraction (eptifibatide 50 to 150 μM): dose-dependent decrease
- Increase in lag time (eptifibatide 50 to 150 μM): ~4 fold
